Drawing on patent publication US9718841B2, “Bicyclic pyrazolone compounds and methods of use” (CALITOR SCIENCES, LLC, priority 2014, dated 2017), this text covers F and T1/2 for six molecules.

Series [1] can be described thus: Pharmacokinetic profiles in rats. The settings on record: bioavailability. In kind it is in vivo. The protocol:
The compounds disclosed herein are assessed in pharmacokinetic studies in mice, rats, dogs or monkeys. The compounds are administered as a water solution, 2% HPMC+1% TWEEN® 80 in water solution, 5% DMSO+5% solutol in saline, 4% MC suspension or capsule. For the intravenous administration, the animals are generally given at 1 or 2 mg/kg dose. For the oral (p.o.) dosing, mice and rats are generally given 5 or 10 mg/kg dose, and dogs and monkeys are generally given 10 mg/kg dose. The blood samples (0.3 mL) are drawn at 0.25, 0.5, 1.0, 2.0, 3.0, 4.0, 6.0, 8.0, 12 and 24 h time points or 0.083, 0.25, 0.5, 1.0, 2.0, 4.0, 6.0, 8.0 and 24 h time points and centrifuged at 3,000 or 4000 rpm for 2 to 10 min. The plasma solutions are collected, and stored at −20° C. or −70° C. until analyzed by LC/MS/MS as described above.

The nature of series [2]: Compound stability in human liver microsomes. In kind it is in vitro ADME. The settings on record: 37° C. The protocol:
Human or rat liver microsomes incubations were conducted in duplicate in polypropylene tubes. The typical incubation mixtures consisted of human or rat liver microsomes (0.5 mg protein/mL), compounds of interest (5 μM) and NADPH (1.0 mM) in a total volume of 200 μL potassium phosphate buffer (PBS, 100 mM, pH 7.4). Compounds were dissolved in DMSO and diluted with PBS such that the final concentration of DMSO was 0.05%. The enzymatic reactions were commenced with the addition of protein after a 3-min preincubation and incubated in a water bath open to the air at 37° C. Reactions were terminated at various time points (0, 5, 10, 15, 30, 60 min) by adding equal volume of ice-cold acetonitrile. The samples were stored at −80° C. until LC/MS/MS assays.
The concentrations of compounds in the incubation mixtures of human or rat liver microsomes were determined by a LC/MS/MS method. The ranges of the linearity in the concentration range were determined for each tested compounds.
A parallel incubation was performed using denatured microsomes as the negative control, and reactions were terminated at various time points (0, 15, 60 min) after incubation at 37° C.
Dextromethorphan (70 μM) was selected as the positive control, and reactions were terminated at various time points (0, 5, 10, 15, 30, 60 min) after incubation at 37° C. […]

The molecule `Nc1cc(Oc2ccc(NC(=O)c3c4n(n(-c5ccccc5)c3=O)CCC4)cc2)ccn1` [Ex. 1, N-(4-((2-aminopyridin-4-yl)oxy)phenyl)-2-oxo-1-phenyl-2,4,5,6-tetrahydro-1H-pyrrolo[1,2-b]pyrazole-3-carboxamide] came in with a F in series [1] of 163.3%.

Regarding `O=C(Nc1ccc(Oc2ccnc(NC(=O)C3CC3)c2)cc1)c1c2n(n(-c3ccccc3)c1=O)CCC2` [Ex. 2, N-(4-((2-(cyclopropanecarboxamido)pyridin-4-yl)oxy)phenyl)-2-oxo-1-phenyl-2,4,5,6-tetrahydro-1H-pyrrolo[1,2-b]pyrazole-3-carboxamide], the F in series [1] stood at 68.1%. Consider `CC(=O)Nc1cc(Oc2ccc(NC(=O)c3c4n(n(-c5ccccc5)c3=O)CCC4)cc2)ccn1` [Ex. 3, N-(4-((2-acetamidopyridin-4-yl)oxy)phenyl)-2-oxo-1-phenyl-2,4,5,6-tetrahydro-1H-pyrrolo[1,2-b]pyrazole-3-carboxamide], for which the F in series [1] amounted to 94.5%. As to `CC(=O)Nc1cc(Oc2ccc(NC(=O)c3c4n(n(-c5ccccc5)c3=O)CCOC4)nc2)ccn1` [Ex. 12, N-(5-((2-acetamidopyridin-4-yl)oxy)pyridin-2-yl)-2-oxo-1-phenyl-2,4,6,7-tetrahydro-1H-pyrazolo[5,1-c][1,4]oxazine-3-carboxamide], in series [2], the T1/2 entry is reported as “∞”. In addition, in series [1], the F was 72.1%. As for `O=C(Nc1ccc(Oc2ccnc(NC(=O)C3CC3)c2)cn1)c1c2n(n(-c3ccccc3)c1=O)CCC2` [Ex. 14, N-(5-((2-(cyclopropanecarboxamido)pyridin-4-yl)oxy)pyridin-2-yl)-2-oxo-1-phenyl-2,4,5,6-tetrahydro-1H-pyrrolo[1,2-b]pyrazole-3-carboxamide], the F in series [1] was determined as 87.9%. For the molecule `O=C(Nc1ccc(Oc2ccnc(NC(=O)C3CC3)c2)cc1)c1c2n(n(-c3ccccc3)c1=O)CCOC2` [Ex. 19, N-(4-((2-(cyclopropanecarboxamido)pyridin-4-yl)oxy)phenyl)-2-oxo-1-phenyl-2,4,6,7-tetrahydro-1H-pyrazolo[5,1-c][1,4]oxazine-3-carboxamide], in series [2], the T1/2 entry is “∞”. The F in series [1] is reported as 66.7%.
